# Patent US20250009713A1 (priority 2021, published 2025)
# Assays:
# Type in all cases: cell-based
# [1] = system: SARS-COV-2 strain US (US-WA1/2020); assay: plaque assay, strain US, summary over cell types; settings: Severe acute respiratory syndrome coronavirus 2, two-way ANOVA estimate
# [2] = system: SARS-COV-2 SouthAfrica/KRISP-K005325/2020 (beta variant; NR-54009); assay: microbe, parasite or virus in culture; settings: Plaque, Calu-3, virus SA
# [3] = system: SARS-COV-2 USA/MD-HP20874/2021 (omicron variant; NR-56461); assay: microbe, parasite or virus in culture; settings: Plaque, Calu-3, virus Omicron
# [4] = system: SARS-COV-2 SouthAfrica/KRISP-K005325/2020 (beta variant; NR-54009); assay: microbe, parasite or virus in culture
# [5] = system: SARS-COV-2 USA/MD-HP20874/2021 (omicron variant; NR-56461); assay: microbe, parasite or virus in culture; settings: Plaque, Vero, virus Omicron
# [6] = system: SARS-COV-2 England/204820464/2020 (alpha variant; NR-54000); assay: microbe, parasite or virus in culture
# [7] = system: SARS-COV-2 USA/MD-HP20874/2021 (omicron variant; NR-56461); assay: microbe, parasite or virus in culture; settings: PCR, Calu-3, virus Omicron
# [8] = system: SARS-COV-2 SouthAfrica/KRISP-K005325/2020 (beta variant; NR-54009); assay: microbe, parasite or virus in culture; settings: Plaque, Vero, virus SA
# [9] = system: SARS-COV-2 USA/MD-HP20874/2021 (omicron variant; NR-56461); assay: microbe, parasite or virus in culture; settings: PCR, Vero, virus Omicron
# [10] = system: SARS-COV-2 US-PHC658/2021 (delta variant; NR-55611); assay: microbe, parasite or virus in culture; settings: Plaque, Calu-3, virus Delta
# [11] = system: SARS-COV-2 SouthAfrica/KRISP-K005325/2020 (beta variant; NR-54009); assay: microbe, parasite or virus in culture; settings: PCR, Calu-3, virus SA
# [12] = system: SARS-COV-2 US-PHC658/2021 (delta variant; NR-55611); assay: microbe, parasite or virus in culture; settings: Plaque, Vero, virus Delta
# [13] = system: SARS-COV-2 England/204820464/2020 (alpha variant; NR-54000); assay: microbe, parasite or virus in culture; settings: Plaque, Vero, virus UK
# [14] = system: SARS-COV-2 England/204820464/2020 (alpha variant; NR-54000); assay: microbe, parasite or virus in culture; settings: Plaque, Calu-3, virus UK
# [15] = system: SARS-COV-2 US-PHC658/2021 (delta variant; NR-55611); assay: microbe, parasite or virus in culture; settings: PCR, Calu-3, virus Delta
# [16] = system: SARS-COV-2 US-PHC658/2021 (delta variant; NR-55611); assay: microbe, parasite or virus in culture; settings: PCR, Vero, virus Delta
# [17] = system: SARS-COV-2 England/204820464/2020 (alpha variant; NR-54000); assay: microbe, parasite or virus in culture; settings: PCR, Calu-3, virus UK
# [18] = Severe acute respiratory syndrome coronavirus 2, m.o.i 0.1, […]
# [19] = PCR, Vero, virus SA, log-logistic curve fit
# [20] = Severe acute respiratory syndrome coronavirus 2, Vero
# [21] = PCR, Vero, virus UK, log-logistic curve fit
compound,measurement,setting,value
"Cn1cc(-c2cccc3cc(C(=O)NC(=N)N)ccc23)cn1 [BIT225, N-carbamimidoyl-5-(1-methyl-1H-pyrazol-4-yl)-2-naphthamide]",EC50,[1],3.8 µM
same,Max. Response (d),[2]; log-logistic curve fit,3.52 log10
same,Slope (b),[2]; log-logistic curve fit,1.34 nmol⁻¹
same,EC50,[2]; [18],6.79 µM
same,Max. Response (d),[3]; log-logistic curve fit,3.42 log10
same,Slope (b),[3]; log-logistic curve fit,1.11 nmol⁻¹
same,EC50,[3]; [18],7.61 µM
same,Max. Response (d),[4]; [19],3.52 log10
same,Slope (b),[4]; [19],1.28 nmol⁻¹
same,EC50,[4]; [20],2.65 µM
same,Max. Response (d),[5]; log-logistic curve fit,6.31 log10
same,Slope (b),[5]; log-logistic curve fit,1.41 nmol⁻¹
same,EC50,[5]; [18],6.5 µM
same,Max. Response (d),[6]; [21],3.58 log10
same,Slope (b),[6]; [21],1.07 nmol⁻¹
same,EC50,[6]; [20],4.56 µM
same,Max. Response (d),[7]; log-logistic curve fit,2.57 log10
same,Slope (b),[7]; log-logistic curve fit,1.08 nmol⁻¹
same,EC50,[7]; [18],4.37 µM
same,Slope (b),[8]; log-logistic curve fit,1.50 nmol⁻¹
same,EC50,[8]; [18],7.26 µM
same,Max. Response (d),[9]; log-logistic curve fit,3.51 log10
same,Slope (b),[9]; log-logistic curve fit,1.22 nmol⁻¹
same,EC50,[9]; [18],3.37 µM
same,Max. Response (d),[10]; log-logistic curve fit,3.44 log10
same,Slope (b),[10]; log-logistic curve fit,1.00 nmol⁻¹
same,EC50,[10]; [18],7.9 µM
same,Max. Response (d),[11]; log-logistic curve fit,2.67 log10
same,Slope (b),[11]; log-logistic curve fit,1.07 nmol⁻¹
same,EC50,[11]; [18],4.17 µM
same,Max. Response (d),[12]; log-logistic curve fit,6.45 log10
same,Slope (b),[12]; log-logistic curve fit,1.48 nmol⁻¹
same,EC50,[12]; [18],6.65 µM
same,Max. Response (d),[13]; log-logistic curve fit,6.41 log10
same,EC50,[13]; [18],6.7 µM
same,Max. Response (d),[14]; log-logistic curve fit,3.43 log10
same,Slope (b),[14]; log-logistic curve fit,1.15 nmol⁻¹
same,EC50,[14]; [18],5.72 µM
same,Max. Response (d),[15]; log-logistic curve fit,2.56 log10
same,Slope (b),[15]; log-logistic curve fit,1.08 nmol⁻¹
same,EC50,[15]; [18],4.81 µM
same,Max. Response (d),[16]; log-logistic curve fit,3.55 log10
same,Slope (b),[16]; log-logistic curve fit,1.15 nmol⁻¹
same,EC50,[16]; [18],3.59 µM
same,Max. Response (d),[17]; log-logistic curve fit,2.58 log10
same,Slope (b),[17]; log-logistic curve fit,1.21 nmol⁻¹
same,EC50,[17]; [18],2.86 µM
